Values quoted from earlier work, collected in patent US20090247553A1, “Highly Pure Paliperidone or a Pharmaceutically Acceptable Salt Thereof Substantially Free of Keto Impurity” (ACTAVIS GROUP PTC EHF, priority 2008, published 2009).

Columns and labels:
[1] = powder

Which “solubility in 0.1N HCl” value (0.1N HCl) does the source give for `Cc1nc2n(c(=O)c1CCN1CCC(c3noc4cc(F)ccc34)CC1)CCCC2O` (racemic) [Paliperidone, (±)-3-[2-[4-(6-fluoro-1,2-benzisoxazol-3-yl)-1-piperidinyl]ethyl]-6,7,8,9-tetrahydro-9-hydroxy-2-methyl-4H-pyrido[1,2-a]pyrimidin-4-one] here?
The value was 2.3 g/100 ml.

And the solubility in ethanol (ethanol)?
The solubility in ethanol was 0.076 g/100 ml.

And the solubility in water (water)?
The solubility in water was 0.003 g/100 ml.

And the hygroscopicity [1]?
Its hygroscopicity is “non-hygroscopic”.
